Experimental data: ChEMBL document CHEMBL1122727, “Adrenoceptor and tetrabenazine antagonism activities of some pyridinyltetrahydropyridines” (J Med Chem, 1984)

Tests used:
[1] = target: T1, Alpha-1A adrenergic receptor (Bos taurus, UniProt P18130); test: Displacement of [3H]prazosin from calf cerebral cortex alpha-1 adrenergic receptor; format: tissue-based
T1 sequence (P18130 whole entry): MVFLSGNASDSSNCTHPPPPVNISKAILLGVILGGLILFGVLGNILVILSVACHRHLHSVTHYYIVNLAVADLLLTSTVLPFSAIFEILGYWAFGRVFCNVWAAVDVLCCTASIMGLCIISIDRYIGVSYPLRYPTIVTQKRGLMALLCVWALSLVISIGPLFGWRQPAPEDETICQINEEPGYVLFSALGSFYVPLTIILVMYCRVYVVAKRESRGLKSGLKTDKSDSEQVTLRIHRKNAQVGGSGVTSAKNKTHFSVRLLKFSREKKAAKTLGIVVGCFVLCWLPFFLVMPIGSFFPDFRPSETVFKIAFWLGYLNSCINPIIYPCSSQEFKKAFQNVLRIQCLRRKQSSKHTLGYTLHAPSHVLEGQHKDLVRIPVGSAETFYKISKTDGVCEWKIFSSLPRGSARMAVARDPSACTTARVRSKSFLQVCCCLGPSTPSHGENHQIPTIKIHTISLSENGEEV

[2] = Relative binding to alpha-1a and alpha-2 adrenergic receptors (ratio of Ki-prazosin and Ki-clonidine)
[3] = target: T2, Adrenergic receptor alpha-2 (Rattus norvegicus, UniProt P22086+P19328+P22909); test: Antagonistic activity against clonidine-stimulated rat vas deferens presynaptic alpha-2 adrenergic receptor; format: functional, tissue-based
T2 sequence (P22086 whole entry): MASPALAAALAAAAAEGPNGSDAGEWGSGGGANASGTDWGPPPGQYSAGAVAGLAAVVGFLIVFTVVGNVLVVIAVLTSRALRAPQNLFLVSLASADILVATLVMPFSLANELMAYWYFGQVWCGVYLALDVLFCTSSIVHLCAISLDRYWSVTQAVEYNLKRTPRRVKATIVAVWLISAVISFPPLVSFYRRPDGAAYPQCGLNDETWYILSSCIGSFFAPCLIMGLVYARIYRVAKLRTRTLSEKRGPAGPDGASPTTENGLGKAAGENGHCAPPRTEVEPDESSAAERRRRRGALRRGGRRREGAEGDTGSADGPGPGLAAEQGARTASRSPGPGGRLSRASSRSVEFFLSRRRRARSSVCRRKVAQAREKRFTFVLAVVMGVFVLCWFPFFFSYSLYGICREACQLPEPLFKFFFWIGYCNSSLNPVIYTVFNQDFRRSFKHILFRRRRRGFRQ
T2 sequence (P19328 whole entry): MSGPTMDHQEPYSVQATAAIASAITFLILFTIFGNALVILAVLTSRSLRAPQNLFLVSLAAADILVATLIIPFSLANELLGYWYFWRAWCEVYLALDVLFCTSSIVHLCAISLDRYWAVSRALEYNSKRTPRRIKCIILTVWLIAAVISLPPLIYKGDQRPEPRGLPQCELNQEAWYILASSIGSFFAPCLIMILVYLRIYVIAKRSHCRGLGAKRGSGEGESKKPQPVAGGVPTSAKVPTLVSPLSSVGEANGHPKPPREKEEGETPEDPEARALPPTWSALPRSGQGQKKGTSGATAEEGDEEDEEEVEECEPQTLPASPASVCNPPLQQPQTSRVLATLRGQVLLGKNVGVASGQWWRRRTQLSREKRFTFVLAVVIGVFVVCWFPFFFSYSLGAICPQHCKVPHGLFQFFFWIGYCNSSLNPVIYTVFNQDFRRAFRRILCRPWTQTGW
T2 sequence (P22909 whole entry): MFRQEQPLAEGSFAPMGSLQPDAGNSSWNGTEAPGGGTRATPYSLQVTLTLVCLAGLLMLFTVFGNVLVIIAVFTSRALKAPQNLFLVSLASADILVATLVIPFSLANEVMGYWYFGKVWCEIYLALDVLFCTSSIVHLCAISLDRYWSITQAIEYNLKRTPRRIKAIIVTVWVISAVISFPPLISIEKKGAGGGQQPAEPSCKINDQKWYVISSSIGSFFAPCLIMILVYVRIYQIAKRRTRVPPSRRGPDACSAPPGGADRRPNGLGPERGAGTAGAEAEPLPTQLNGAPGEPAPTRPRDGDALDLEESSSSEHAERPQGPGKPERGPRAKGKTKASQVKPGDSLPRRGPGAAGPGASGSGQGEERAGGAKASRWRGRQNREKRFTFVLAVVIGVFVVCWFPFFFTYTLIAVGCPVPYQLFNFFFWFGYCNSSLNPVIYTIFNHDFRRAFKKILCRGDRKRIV

[4] = Displacement of [3H]clonidine from calf cerebral cortex alpha-2 adrenergic receptor; format: tissue-based, Bos taurus
Mus musculus = test: Compound was evaluated for its antagonistic effect on the Tetrabenazine-induced ptosis following intravenous administration; format: functional
[5] = Selectivity ratio expressed as the ratio of -log methoxamine pA2 to -log clonidine pA2
[6] = target: T3, Adrenergic receptor alpha-1 (Rattus norvegicus, UniProt P15823+P23944+P43140); test: Antagonistic activity upon postsynaptic alpha-1 adrenergic receptor was determined in the rat isolated, field stimulated vas deferens using methoxamine; format: functional, tissue-based
T3 sequence (P15823 whole entry): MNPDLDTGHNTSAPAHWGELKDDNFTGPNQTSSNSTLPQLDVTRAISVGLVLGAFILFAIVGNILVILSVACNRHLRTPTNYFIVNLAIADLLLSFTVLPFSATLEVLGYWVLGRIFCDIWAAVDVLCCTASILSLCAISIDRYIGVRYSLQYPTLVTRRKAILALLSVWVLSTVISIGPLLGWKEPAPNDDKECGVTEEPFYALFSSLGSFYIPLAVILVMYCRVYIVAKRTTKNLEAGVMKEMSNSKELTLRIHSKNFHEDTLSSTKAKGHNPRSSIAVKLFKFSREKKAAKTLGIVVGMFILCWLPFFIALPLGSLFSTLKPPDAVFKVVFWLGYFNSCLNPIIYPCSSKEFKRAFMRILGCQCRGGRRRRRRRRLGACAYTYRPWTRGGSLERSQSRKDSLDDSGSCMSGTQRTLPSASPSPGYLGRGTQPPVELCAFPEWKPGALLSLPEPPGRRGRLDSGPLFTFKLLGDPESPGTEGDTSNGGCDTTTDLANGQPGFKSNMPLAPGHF
T3 sequence (P23944 whole entry): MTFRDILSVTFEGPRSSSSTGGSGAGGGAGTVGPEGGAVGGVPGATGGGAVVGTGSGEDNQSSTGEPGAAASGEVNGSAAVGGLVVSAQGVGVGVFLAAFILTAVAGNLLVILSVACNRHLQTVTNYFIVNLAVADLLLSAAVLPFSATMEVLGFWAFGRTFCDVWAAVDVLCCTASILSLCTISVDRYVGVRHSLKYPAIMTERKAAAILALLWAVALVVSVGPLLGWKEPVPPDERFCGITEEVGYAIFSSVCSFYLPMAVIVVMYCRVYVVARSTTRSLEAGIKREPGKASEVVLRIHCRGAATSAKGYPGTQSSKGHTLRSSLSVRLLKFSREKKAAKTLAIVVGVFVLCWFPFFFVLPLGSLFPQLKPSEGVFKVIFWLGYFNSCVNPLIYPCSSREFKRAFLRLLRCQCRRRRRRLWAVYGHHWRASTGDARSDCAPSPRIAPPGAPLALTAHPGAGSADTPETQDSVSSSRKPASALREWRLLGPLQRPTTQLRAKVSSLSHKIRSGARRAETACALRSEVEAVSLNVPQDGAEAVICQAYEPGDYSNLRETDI
T3 sequence (P43140 whole entry): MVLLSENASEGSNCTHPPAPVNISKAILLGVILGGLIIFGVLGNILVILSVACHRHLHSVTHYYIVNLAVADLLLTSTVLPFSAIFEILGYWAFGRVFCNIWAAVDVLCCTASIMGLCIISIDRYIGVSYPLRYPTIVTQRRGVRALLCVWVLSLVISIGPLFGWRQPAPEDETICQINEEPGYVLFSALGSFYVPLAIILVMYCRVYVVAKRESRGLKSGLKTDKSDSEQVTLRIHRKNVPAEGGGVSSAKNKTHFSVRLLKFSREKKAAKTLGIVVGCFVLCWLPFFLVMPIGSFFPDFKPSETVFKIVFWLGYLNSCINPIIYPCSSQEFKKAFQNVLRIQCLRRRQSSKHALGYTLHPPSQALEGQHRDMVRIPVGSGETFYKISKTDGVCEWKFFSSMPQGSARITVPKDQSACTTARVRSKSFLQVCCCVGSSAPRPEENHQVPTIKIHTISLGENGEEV

SMILES	Ki [1]	Selectivity ratio [2]	pA2 [3]	Ki [4]	ED50 (Mus musculus)	Selectivity ratio [5]	pA2 [6]
CN1CCC(c2ccccn2)CC1	2.5 µM	6	< 5.8	0.42 µM			
Cc1cccnc1C1=CCN(C)CC1	2.5 µM	15	< 5.8	0.17 µM			
CNCCCN1c2ccccc2CCc2ccccc21 [DESIPRAMINE]					0.07 mg/kg		
CN1CC=C(c2ccncc2F)CC1	7.7 µM	11	< 5.8	0.72 µM			
c1ccc(N2CCNCC2)nc1		65		0.037 µM		5	
CN1CC=C(c2ncccc2F)CC1	3.3 µM	150	6.8	0.022 µM	0.35 mg/kg	32	5.3
CN1CC=C(c2cccnc2)CC1	4.8 µM	6.4	< 5.8	0.75 µM			
C1=C(c2ccccn2)CCNC1	4 µM	28	< 5.7	0.144 µM			
CN1CC=C(c2ncccc2Cl)CC1	2.26 µM	31	< 5.9	0.072 µM			
CN1CC=C(c2ccccn2)CC1	2.5 µM	44	6.2	0.057 µM	0.5 mg/kg	6	5.4
CN1CCN(c2ncccc2F)CC1		98		0.005 µM		16	
